# In article PMC5829251, “NAD^+ analog reveals PARP-1 substrate-blocking mechanism and allosteric communication from catalytic center to DNA-binding domains” (Nature Communications, 2018):
# Legend:
# PARP-1 = biological target: T1, PARP-1 (Homo sapiens, UniProt P09874); assay: HXMS analysis of PARP-1 dynamics; settings: for HX of an ART active site peptide (a.a. 901–917): 10^4 s time point, PARP-1 alone or in complex with DNA
# T1 construct: Full-length PARP-1 WT (residues 1–1014) was cloned in pET28 vector; made in house; host or cells: E. coli
# Protocol: Deuterium on-exchange was carried out at RT by mixing 5 µL of each sample (8 µM concentration) with 15 µL of deuterium on-exchange buffer (10 mM HEPES, pD 7.0, 150 mM NaCl, in D2O) yielding a final D2O concentration of 75%. pD values for deuterium-based buffers were calculated as pD = pH + 0.41[38]. Upon mixing with on-exchange buffer, the amide protons will be replaced over time with deuterons yielding an increased peptide mass. To quench the deuterium exchange reaction, the sample (20 µl) was mixed with 30 µl of ice-cold quench buffer (1.66 M guanidine hydrochloride, 10% glycerol, and 0.8% formic acid, for a final pH of 2.4–2.5) and rapidly frozen in liquid nitrogen. For the MS analysis, each sample (50 µL) was melted on ice and loaded onto an in-house packed pepsin column for digestion. Pepsin (Sigma) was coupled to POROS 20 AL support (Applied Biosystems), and the immobilized pepsin was packed into a column housing (2 mm × 2 cm, Upchurch). Pepsin-digested peptides were captured on TARGA C8 5 µm Piccolo HPLC column (1.0 × 5.0 mm, Higgins Analytical) and eluted through an analytical C18 HPLC column (0.3 × 75 mm, Agilent) by a shaped 12–100% buffer B gradient at 6 µL per min (Buffer A: 0.1% formic acid; Buffer B: 0.1% formic acid, 99.9% acetonitrile). The effluent was electrosprayed into the mass spectrometer. Non-deuterated (ND) PARP-1 samples were prepared in 10 mM HEPES, pH 7.0, 150 mM NaCl buffer, and mixed with the quench buffer to mimic the samples from on-exchange reaction. Peptides of ND samples were analyzed in tandem MS (LTQ Orbitrap XL, Thermo Fisher Scientific). We analyzed MS/MS data collected from these samples to identify potential PARP-1 peptides using SEQUEST (Bioworks v3.3.1, Thermo Fisher Scientific) with a peptide tolerance of 8 ppm and a fragment tolerance of 0.1 AMU. Deuterated samples were then analyzed on an Exactive Plus EMR-Orbritrap (Thermo Fisher Scientific). A MATLAB based program, ExMS[39] was used for HXMS data processing. […] The level of deuteration of individual peptides was measured by comparing them to the ND sample. […] For each peptide, we compare the extent of deuteration as measured in the FD sample to the theoretical maximal deuteration (i.e., if no back-exchange occurs); the median extent of back-exchange in our datasets is only 15%.
# Peptide plotting and calculations were performed in MATLAB. […] For comparing two different HXMS datasets, we plot the percent difference of each peptide, which is calculated by subtracting the percent deuteration of one sample from that of another, and plotted according to the color legend in stepwise increments (as in Fig. 5b). […]
# PARP-1 WT [1] = biological target: T2, PARP-1 WT (Homo sapiens, UniProt P09874); assay: Fluorescence polarization DNA competition assay, PARP-1 WT; format: binding; settings: 40 nM PARP-1 WT, 20 nM labeled DNA, compound 500 μM, competitor 100 nM
# T2 construct: Full-length PARP-1 WT (residues 1–1014) was cloned in pET28 vector; made in house; host or cells: E. coli
# Protocol: (§1) For the DNA competition assay, 40 nM PARP-1 WT, or PARP-1 ΔHD, was incubated with 20 nM of dumbbell DNA with a central nick carrying an internal fluorescent FAM group (5′-GCT GAG C/FAMT/T CTGGTGAAGCTCAGCTCGCGGCAGCTGGTGCTGCCGCGA-3′) for 30 min at RT in 12 mM Hepes pH 8.0, 60 mM KCl, 8 mM MgCl2, 4% glycerol, 5.7 mM beta-mercaptoethanol, 0.05 mg per ml bovine serm albumin with or without BAD or benzamide (500 μM). A competitor unlabeled DNA of the same sequence was added at 100 nM and FP was measured over time on a VictorV plate reader (Perkin Elmer). For the DNA affinity measurement assay, increasing concentrations of PARP-1 WT were incubated for 30 min at RT with 5 nM of dumbbell DNA probe carrying a nick (described above) in the absence or presence of BAD or benzamide (100 μM) in the following buffer: 12 mM Hepes pH 8.0, 250 mM NaCl, 4% glycerol, 5.7 mM beta-mercaptoethanol, 0.05 mg per ml bovine serum albumin.
# PARP-1 WT [2] = biological target: T2, PARP-1 WT; assay: Fluorescence polarization DNA affinity measurement assay; format: binding; settings: presence versus absence of compound
# Protocol: as §1
# T2 sequence (P09874 whole entry, the tested form may be a part): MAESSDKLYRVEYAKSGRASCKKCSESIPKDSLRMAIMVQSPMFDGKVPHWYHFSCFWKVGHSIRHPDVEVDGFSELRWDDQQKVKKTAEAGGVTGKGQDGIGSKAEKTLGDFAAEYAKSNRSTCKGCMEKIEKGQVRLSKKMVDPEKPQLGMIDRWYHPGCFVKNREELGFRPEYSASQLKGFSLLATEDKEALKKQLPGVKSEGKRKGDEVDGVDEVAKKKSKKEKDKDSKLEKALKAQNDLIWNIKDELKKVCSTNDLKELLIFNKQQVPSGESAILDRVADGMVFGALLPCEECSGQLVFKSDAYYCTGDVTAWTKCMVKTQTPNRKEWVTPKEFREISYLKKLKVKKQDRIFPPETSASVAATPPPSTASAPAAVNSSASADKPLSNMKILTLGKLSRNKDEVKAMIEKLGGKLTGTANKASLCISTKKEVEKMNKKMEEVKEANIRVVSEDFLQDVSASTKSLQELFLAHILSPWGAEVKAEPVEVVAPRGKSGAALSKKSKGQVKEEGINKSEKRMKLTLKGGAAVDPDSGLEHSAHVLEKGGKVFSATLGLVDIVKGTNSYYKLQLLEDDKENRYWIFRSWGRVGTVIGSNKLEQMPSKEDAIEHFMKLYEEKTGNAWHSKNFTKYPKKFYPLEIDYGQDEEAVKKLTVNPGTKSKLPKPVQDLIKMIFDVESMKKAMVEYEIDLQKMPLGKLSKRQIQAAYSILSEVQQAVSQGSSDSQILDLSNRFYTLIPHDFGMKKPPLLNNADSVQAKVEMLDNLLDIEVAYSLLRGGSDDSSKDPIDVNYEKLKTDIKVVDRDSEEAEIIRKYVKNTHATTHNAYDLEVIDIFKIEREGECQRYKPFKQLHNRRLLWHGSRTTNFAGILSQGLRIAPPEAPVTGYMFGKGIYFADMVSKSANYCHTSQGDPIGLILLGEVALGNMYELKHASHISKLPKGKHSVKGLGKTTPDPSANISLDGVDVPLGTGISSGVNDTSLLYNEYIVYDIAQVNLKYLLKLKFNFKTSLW
# T1 sequence (P09874 whole entry, the tested form may be a part): as above
SMILES,"HX in peptides localized to HD helices αB and αF (PARP-1; 10^2 s time point, PARP-1 bound to a DNA strand break)",HX of an ART active site peptide (a.a. 901–917) (PARP-1),"HX in regions outside of the CAT (domain-domain and domain-DNA interfaces) (PARP-1; PARP-1 in complex with DNA, not in the absence of DNA)",exchange of PARP-1 from labeled to unlabeled competitor DNA (PARP-1 WT [1]),increase in PARP-1 affinity for a DNA single-strand break (PARP-1 WT [2])
"NC(=O)c1cccc(C2OC(COP(=O)(O)OP(=O)(O)OCC3OC(n4cnc5c(N)ncnc54)C(O)C3O)C(O)C2O)c1 (centres unmarked) [BAD, benzamide adenine dinucleotide]",increased HX,only observed with PARP-1 in complex with DNA,decrease in HX,greatly prevented the exchange,10 fold
NC(=O)c1ccccc1 [benzamide],–,decreased HX in the same ART peptide for both PARP-1 alone and PARP-1 in complex with DNA,–,did not affect PARP-1 release,no effect
